Data from patent publication US12139477B2, “Compounds, salts thereof and methods for treatment of diseases” (ACADIA PHARMACEUTICALS INC., priority 2017, dated 2024).

Legend:
hERG channel = biological target: T1, hERG channel (Homo sapiens, UniProt Q12809); experiment: hERG assay, whole cell recordings in CHO cells (AVIVA); assay type: cell-based; details: CHO cells stably expressing hERG, pH 7.4
T1 construct: host or cells: CHO cells, stably transfected
Method: The most common mechanism for these adverse events is the inhibition of one or more cardiac potassium channels, in particular hERG. This current is important for cardiac myocyte repolarization and is a common target for drugs that prolong the QT interval. Test articles in this study were therefore characterized to determine their ability to inhibit the hERG channel. Ion channel activity was measured at AVIVA Biosciences Corporation (San Diego, CA), using a stably transfected Chinese Hamster Ovary (CHO) cell line expressing the hERG mRNA.
Cells: AVIVA's CHO cell line, which stably expresses hERG channels, was used for the study. Cells were cultured in DMEM/F12 containing 10% FBS, 1% penicillin/streptomycin and 500 μg/ml G418. Before testing, cells were harvested using Accumax (Innovative Cell Technologies).
Solutions: For electrophysiological recordings, the following solutions were used: External Solution: 2 mM CaCl2); 2 mM MgCl2; 4 mM KCl; 150 mM NaCl; 10 mM Glucose; 10 mM HEPES; 305-315 mOsm; pH 7.4 (adjusted with 5M NaOH); Internal Solution: 140 mM KCl; 10 mM MgCl2; 6 mM EGTA; 5 mM HEPES-Na; 5 mM ATP-Mg; 295-305 mOsm; pH 7.25 (adjusted with 1M KOH).
Electrophysiology: Whole cell recordings were performed using PX 7000A (Axon Instruments) with AVIVA's SealChip™ technology. Cells were voltage clamped at a holding potential of −80 mV. The hERG current was then activated by a depolarizing step to −50 mV for 300 ms. This first step at −50 mV was used as a baseline for measuring peak amplitude of the tail current. Next, a voltage step to +20 mV was applied for 5 s to activate the channels. Finally, a step back to −50 mV for 5 s removed activation and the deactivating tail current was recorded.
Test Article Handling and Dilutions: All test articles were prepared from 10 mM DMSO stock solutions provided by Sponsor. Solutions were mixed by sonication for 20 min, followed by vigorous vortexing. Prior to testing, compounds were diluted to test concentrations in glass vials using External Solution. Dilutions were prepared no longer than 20 min prior to use.
Electrophysiology Procedures: After achieving whole cell configuration, cells were monitored for 90 s to assess stability and then washed with External Solution for 66 s. The voltage protocol previously described was then applied to the cells every 12 s throughout the procedure. Only stable cells with recording parameters above threshold (see Quality Control section) were allowed to enter the drug addition procedure. External solution containing 0.1% DMSO (vehicle) was applied to the cells to establish a baseline. […] Test article solutions were added to cells in 4 separate additions. Cells were kept in test solution until effect of the test article reached steady state, to a maximum of 12 min. Next, 1 μM cisapride (positive control) was added. Finally, washout with External Solution was performed until the recovery current reached steady state.
Data Analysis: Data analysis was performed using DataXpress (Axon Instruments), Clampfit (Axon Instruments) and Origin (OriginLab Corporation) software.

5HT2A = 5HT2A (Homo sapiens, UniProt P28223); experiment: Receptor Selection and Amplification (R-SAT) functional assay; assay type: cell-based; design: expressed in transfected cells; host or cells: NIH3T3 cells, pSI mammalian expression vector; details: NIH3T3 cells; Ki from IC50 by Cheng and Prussoff; read-out: 5-HT2a (pKi) (R-SAT) (converted)
5HT2A, sequence (P28223 whole entry): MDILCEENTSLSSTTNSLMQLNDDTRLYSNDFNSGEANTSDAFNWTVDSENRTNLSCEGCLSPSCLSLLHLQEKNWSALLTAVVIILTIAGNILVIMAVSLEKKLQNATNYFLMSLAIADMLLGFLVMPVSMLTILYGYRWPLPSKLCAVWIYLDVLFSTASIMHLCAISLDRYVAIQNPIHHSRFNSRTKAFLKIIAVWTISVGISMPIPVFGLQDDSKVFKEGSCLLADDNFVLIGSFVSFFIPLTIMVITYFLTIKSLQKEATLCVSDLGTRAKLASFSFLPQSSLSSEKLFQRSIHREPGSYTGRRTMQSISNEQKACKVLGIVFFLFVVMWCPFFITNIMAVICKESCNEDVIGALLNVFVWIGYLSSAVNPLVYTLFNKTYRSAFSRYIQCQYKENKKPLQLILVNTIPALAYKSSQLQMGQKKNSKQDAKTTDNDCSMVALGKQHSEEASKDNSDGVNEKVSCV
Description: Receptor Selection and Amplification (R-SAT) Assays. […] The IC50 determined in the RSAT assay was converted into a Ki value using the method of Cheng and Prussoff, Biochem Pharmacol., 1973 Dec. 1; 22(23):3099-108. pKi is the negative of the log(Ki).

T1 sequence (Q12809 whole entry): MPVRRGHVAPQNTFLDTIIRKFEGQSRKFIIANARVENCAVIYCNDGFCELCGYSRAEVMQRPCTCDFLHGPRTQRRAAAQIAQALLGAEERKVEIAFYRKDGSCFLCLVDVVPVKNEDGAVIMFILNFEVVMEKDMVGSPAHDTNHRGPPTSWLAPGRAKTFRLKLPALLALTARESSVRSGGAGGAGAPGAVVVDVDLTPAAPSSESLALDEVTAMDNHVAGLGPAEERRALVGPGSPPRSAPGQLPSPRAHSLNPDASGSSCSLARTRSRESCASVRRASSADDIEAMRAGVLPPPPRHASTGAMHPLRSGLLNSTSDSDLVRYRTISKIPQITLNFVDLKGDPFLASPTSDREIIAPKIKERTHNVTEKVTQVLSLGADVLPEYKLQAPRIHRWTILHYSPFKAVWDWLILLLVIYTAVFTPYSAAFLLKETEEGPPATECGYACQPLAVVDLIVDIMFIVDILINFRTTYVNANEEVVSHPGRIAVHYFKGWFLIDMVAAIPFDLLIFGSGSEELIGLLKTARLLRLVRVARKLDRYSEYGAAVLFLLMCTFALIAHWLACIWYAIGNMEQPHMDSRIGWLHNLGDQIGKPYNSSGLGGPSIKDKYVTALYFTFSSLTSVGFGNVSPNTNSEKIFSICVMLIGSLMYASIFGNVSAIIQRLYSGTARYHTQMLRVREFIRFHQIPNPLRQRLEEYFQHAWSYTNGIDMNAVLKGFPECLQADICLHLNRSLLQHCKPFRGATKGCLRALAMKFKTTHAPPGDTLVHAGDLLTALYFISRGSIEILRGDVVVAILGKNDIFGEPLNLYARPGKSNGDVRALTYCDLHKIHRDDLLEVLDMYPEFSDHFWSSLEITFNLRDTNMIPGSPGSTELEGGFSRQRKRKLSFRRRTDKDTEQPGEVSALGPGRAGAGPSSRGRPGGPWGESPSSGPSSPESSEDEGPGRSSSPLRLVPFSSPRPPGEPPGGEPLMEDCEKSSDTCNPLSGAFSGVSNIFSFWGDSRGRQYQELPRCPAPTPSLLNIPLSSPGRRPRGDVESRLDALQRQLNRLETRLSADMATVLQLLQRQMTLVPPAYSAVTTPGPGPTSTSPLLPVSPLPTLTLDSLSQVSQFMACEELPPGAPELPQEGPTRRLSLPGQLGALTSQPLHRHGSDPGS

## CC(C)COc1ccc(CNC(=O)N(Cc2ccc(F)cc2F)C2CCNCC2)cc1 [Example 4, 1-[(2,4-difluorophenyl)methyl]-3-{[4-(2-methylpropoxy)phenyl]methyl}-1-(piperidin-4-yl)urea]
hERG channel
  inhibition at 1 µM: 11%
5HT2A
  Ki: 2.51 nM

## CC(C)COc1ccc(CNC(=O)N(Cc2ccc(F)cc2)C2CCN(C)CC2)cc1F [Example 6, 3-{[3-fluoro-4-(2-methylpropoxy)phenyl]methyl}-1-[(4-fluorophenyl)methyl]-1-(1-methylpiperidin-4-yl)urea]
hERG channel
  inhibition at 1 µM: 70%
5HT2A
  Ki: 2 nM

## CC(C)COc1ccc(CNC(=O)N(Cc2ccc(F)cc2)C2CCN(C)CC2)c(F)c1 [Example 7, 3-{[2-fluoro-4-(2-methylpropoxy)phenyl]methyl}-1-[(4-fluorophenyl)methyl]-1-(1-methylpiperidin-4-yl)urea]
hERG channel
  inhibition at 1 µM: 87%
5HT2A
  Ki: 2 nM

## CN1CCC(N(Cc2ccc(F)cc2F)C(=O)NCc2ccc3c(c2)CC(C)(C)O3)CC1 [Example 8, 1-[(2,4-difluorophenyl)methyl]-3-[(2,2-dimethyl-2,3-dihydro-1-benzofuran-5-yl)methyl]-1-(1-methylpiperidin-4-yl)urea]
hERG channel
  inhibition at 1 µM: 22%
5HT2A
  Ki: 0.794 nM

## CN1CCC(N(Cc2ccc(F)cc2F)C(=O)NCc2ccc3c(c2)C(C)(C)CO3)CC1 [Example 9, 1-[(2,4-difluorophenyl)methyl]-3-[(3,3-dimethyl-2,3-dihydro-1-benzofuran-5-yl)methyl]-1-(1-methylpiperidin-4-yl)urea]
hERG channel
  inhibition at 1 µM: 63%
5HT2A
  Ki: 7.94 nM

## CN1CCC(N(Cc2ccc(F)cc2F)C(=O)NCc2ccc3c(c2)CCO3)CC1 [Example 10, 1-[(2,4-difluorophenyl)methyl]-3-[(2,3-dihydro-1-benzofuran-5-yl)methyl]-1-(1-methylpiperidin-4-yl)urea]
hERG channel
  inhibition at 1 µM: 10%
5HT2A
  Ki: 1 nM

## CC(C)COc1ccc(CNC(=O)N(Cc2ccc(F)cc2O)C2CCN(C)CC2)cc1 [Example 13, 1-[(4-fluoro-2-hydroxyphenyl)methyl]-1-(1-methylpiperidin-4-yl)-3-{[4-(2-methylpropoxy)phenyl]methyl}urea]
hERG channel
  inhibition at 1 µM: 34%
5HT2A
  Ki: 0.0794 nM

## CC(C)COc1ccc(CNC(=O)N(Cc2ccc(F)cc2)C2CCN(C)CC2)c(O)c1 [Example 14, 1-[(4-fluorophenyl)methyl]-3-{[2-hydroxy-4-(2-methylpropoxy)phenyl]methyl}-1-(1-methylpiperidin-4-yl)urea]
hERG channel
  inhibition at 1 µM: 77%
5HT2A
  Ki: 1.58 nM

## CN1CCC(N(Cc2ccc(F)cc2F)C(=O)NCc2ccc(OCCF)cc2)CC1 [Example 15, 1-[(2,4-difluorophenyl)methyl]-3-{[4-(2-fluoroethoxy)phenyl]methyl}-1-(1-methylpiperidin-4-yl)urea]
hERG channel
  inhibition at 1 µM: 19%
5HT2A
  Ki: 3.16 nM

## CCOc1ccc(CNC(=O)N(Cc2ccc(F)cc2F)C2CCN(C)CC2)cc1 [Example 16, 1-[(2,4-difluorophenyl)methyl]-3-[(4-ethoxyphenyl)methyl]-1-(1-methylpiperidin-4-yl)urea]
hERG channel
  inhibition at 1 µM: 29%
5HT2A
  Ki: 2 nM

## CN1CCC(N(Cc2ccc(F)cc2F)C(=O)NCc2ccc(OC(C)(C)C)cc2)CC1 [Example 18, 3-{[4-(tert-butoxy)phenyl]methyl}-1-[(2,4-difluorophenyl)methyl]-1-(1-methylpiperidin-4-yl)urea]
hERG channel
  inhibition at 1 µM: 17%
5HT2A
  Ki: 0.316 nM

## C=CCOc1ccc(CNC(=O)N(Cc2ccc(F)cc2F)C2CCN(C)CC2)cc1 [Example 19, 3-(4-(allyloxy)benzyl)-1-(2,4-difluorobenzyl)-1-(1-methylpiperidin-4-yl)urea]
hERG channel
  inhibition at 1 µM: 33%
5HT2A
  Ki: 1.58 nM

## CN1CCC(N(Cc2ccc(F)cc2F)C(=O)NCc2ccc3occc3c2)CC1 [Example 20, 3-[(1-benzofuran-5-yl)methyl]-1-[(2,4-difluorophenyl)methyl]-1-(1-methylpiperidin-4-yl)urea]
hERG channel
  inhibition at 1 µM: 30%
5HT2A
  Ki: 1.58 nM

## Cc1nc2cc(CNC(=O)N(Cc3ccc(F)cc3F)C3CCN(C)CC3)ccc2o1 [Example 22]
hERG channel
  inhibition at 1 µM: 10%

## Cc1noc2ccc(CNC(=O)N(Cc3ccc(F)cc3F)C3CCN(C)CC3)cc12 [Example 28]
hERG channel
  inhibition at 1 µM: 32%
5HT2A
  Ki: 3.98 nM

## CN1CCC(N(Cc2ccc(F)cc2F)C(=O)NCc2ccc3c(c2)n(C)c(=O)n3C)CC1 [Example 40]
hERG channel
  inhibition at 1 µM: 9%

## CN1CCC(N(Cc2ccc(F)cc2F)C(=O)NCc2ccc3cn[nH]c3c2)CC1 [Example 41]
hERG channel
  inhibition at 1 µM: 23%

## CN1CCC(N(Cc2ccc(F)cc2F)C(=O)NCc2ccc3c(c2)OCCOC3)CC1 [Example 52]
hERG channel
  inhibition at 1 µM: 8%
5HT2A
  Ki: 39.8 nM

## CN1CCC(N(Cc2ccc(F)cc2F)C(=O)NCc2ccc3c(c2)ncn3C)CC1 [Example 55]
hERG channel
  inhibition at 1 µM: 10%

## CC(C)Oc1ccc(CNC(=O)N(Cc2ccc(F)cc2Cl)C2CCN(C)CC2)cc1 [Example 61]
hERG channel
  inhibition at 1 µM: 23%
5HT2A
  Ki: 15.8 nM

## CC(C)COc1ccc(CNC(=O)N(Cc2ccc(F)cc2Cl)C2CCN(C)CC2)cc1 [Example 62]
hERG channel
  inhibition at 1 µM: 32%
5HT2A
  Ki: 79.4 nM

## CCCOc1ccc(CNC(=O)N(Cc2ccc(F)cc2F)C2CCNCC2)cc1 [Example 76, 1-[(2,4-difluorophenyl)methyl]-1-(piperidin-4-yl)-3-[(4-propoxyphenyl)methyl]urea; Trifluoroacetic Acid]
hERG channel
  inhibition at 1 µM: 12%
5HT2A
  Ki: 3.98 nM

## CC(=O)Oc1cc(F)ccc1CN(C(=O)NCc1ccc(OCC(C)C)cc1)C1CCN(C)CC1 [Example 92, 5-fluoro-2-{[1-(1-methylpiperidin-4-yl)({[4-(2-methylpropoxy)-phenyl]methyl}carbamoyl)amino]methyl}phenyl acetate; Trifluoroacetic Acid]
hERG channel
  inhibition at 1 µM: 45%
5HT2A
  Ki: 0.316 nM

## CN1CCC(N(Cc2ccc(F)cc2F)C(=O)NCc2ccc3c(c2)COC3)CC1 [Example 95, 1-[(2,4-difluorophenyl)methyl]-3-[(1,3-dihydro-2-benzofuran-5-yl)methyl]-1-(1-methylpiperidin-4-yl)urea; Trifluoroacetic Acid]
hERG channel
  inhibition at 1 µM: 8%
5HT2A
  Ki: 50.1 nM

## COc1cc(CNC(=O)N(Cc2ccc(F)cc2F)C2CCN(C)CC2)ccc1Cl [Example 98, 3-[(4-chloro-3-methoxyphenyl)methyl]-1-[(2,4-difluorophenyl)methyl]-1-(1-methylpiperidin-4-yl)urea; Trifluoroacetic Acid]
hERG channel
  inhibition at 1 µM: 62%
5HT2A
  Ki: 3.16 nM

## CC(C)COc1ccc(CNC(=O)N(Cc2ccc(Cl)cc2Cl)C2CCN(C)CC2)cc1 [Example 107, 1-[(2,4-dichlorophenyl)methyl]-1-(1-methylpiperidin-4-yl)-3-{[4-(2-methylpropoxy)phenyl]methyl}urea]
hERG channel
  inhibition at 1 µM: 43%
5HT2A
  Ki: 126 nM

## Cc1ccc(CN(C(=O)NCc2ccc(OC(C)C)cc2)C2CCN(C)CC2)c(F)c1 [Example 115, 1-[(2-fluoro-4-methylphenyl)methyl]-1-(1-methylpiperidin-4-yl)-3-{[4-(propan-2-yloxy)phenyl]methyl}urea; Trifluoroacetic Acid]
hERG channel
  inhibition at 1 µM: 49%
5HT2A
  Ki: 0.316 nM

## COc1ccc(CNC(=O)N(Cc2ccc(F)cc2F)C2CCN(C)CC2)cc1 [Example 125, 3-[(2,4-difluorophenyl)methyl]-1-[(4-methoxyphenyl)methyl]-3-(1-methylpiperidin-4-yl)urea]
hERG channel
  inhibition at 1 µM: 17%
5HT2A
  Ki: 3.98 nM

## COc1cc(F)c(F)cc1CN(C(=O)NCc1ccc(OC(C)C)cc1)C1CCN(C)CC1 [Example 138, 1-[(4,5-difluoro-2-methoxyphenyl)methyl]-1-(1-methylpiperidin-4-yl)-3-{[4-(propan-2-yloxy)phenyl]methyl}urea; Trifluoroacetic Acid]
hERG channel
  inhibition at 1 µM: 13%
